Data from PMC12392035, “Development of Carborane-Based Benzothiazole Analogues as Cannabinoid Receptor Type 2 (CB2R) Ligands” (ACS Omega, 2025).

Key:
[1] = target: T1, human CB2R (cannabinoid receptor type 2) (Homo sapiens, UniProt P34972); assay: competitive radioligand binding, CHO membranes; conditions: [3H]WIN55212-2 displacement; mean of two values; read-out: KiCB2R (nM) mean ^a
T1 construct: gene CNR2; stably transfected in CHO cells; crude membrane homogenates
From the text: competitive radioligand binding, CHO membranes on human CB2R (cannabinoid receptor type 2)

[2] = target: T2, human CB1R (cannabinoid receptor type 1) (Homo sapiens, UniProt P21554); assay: competitive radioligand binding, CHO membranes; conditions: [3H]SR141716A displacement; mean of two values; read-out: KiCB1R (nM) mean ^a
T2 construct: gene CNR1; stably transfected in CHO cells; crude membrane homogenates
T2 sequence (P21554 whole entry): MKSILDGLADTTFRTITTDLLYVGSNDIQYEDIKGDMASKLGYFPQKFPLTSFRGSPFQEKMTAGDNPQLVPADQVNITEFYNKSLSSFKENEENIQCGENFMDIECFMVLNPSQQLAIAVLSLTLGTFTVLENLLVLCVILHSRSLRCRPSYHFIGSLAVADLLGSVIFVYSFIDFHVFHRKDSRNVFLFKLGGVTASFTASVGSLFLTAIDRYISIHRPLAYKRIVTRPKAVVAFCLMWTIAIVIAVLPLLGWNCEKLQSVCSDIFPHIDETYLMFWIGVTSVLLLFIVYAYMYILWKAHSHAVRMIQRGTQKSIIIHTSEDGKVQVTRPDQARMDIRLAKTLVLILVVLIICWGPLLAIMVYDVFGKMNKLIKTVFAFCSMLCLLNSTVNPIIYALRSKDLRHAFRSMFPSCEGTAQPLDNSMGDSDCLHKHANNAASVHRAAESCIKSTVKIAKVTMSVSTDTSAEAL
From the text: competitive radioligand binding, CHO membranes on human CB1R (cannabinoid receptor type 1)

T1 sequence (P34972 whole entry): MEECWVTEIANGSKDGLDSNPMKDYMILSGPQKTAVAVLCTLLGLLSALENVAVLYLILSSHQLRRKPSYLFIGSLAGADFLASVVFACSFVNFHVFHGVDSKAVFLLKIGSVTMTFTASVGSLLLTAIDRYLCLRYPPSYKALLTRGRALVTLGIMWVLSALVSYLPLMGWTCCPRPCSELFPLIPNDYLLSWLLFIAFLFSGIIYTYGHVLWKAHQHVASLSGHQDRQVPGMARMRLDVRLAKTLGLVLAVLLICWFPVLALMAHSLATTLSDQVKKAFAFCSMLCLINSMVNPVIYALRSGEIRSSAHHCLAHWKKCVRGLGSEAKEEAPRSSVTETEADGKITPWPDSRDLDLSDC

(Z)-N-(6-Methoxy-3-(2-methoxyethyl)-benzo[d]-thiazol-2(3H)-ylidene)(1,2-closo-dicarba-dodecaborane)-carboxamide [2o]
Ki [1]: 7.37 nM | Ki [2]: 76800 nM

(Z)-N-(6-Methoxy-3-(2-methoxyethyl)-benzo[d]-thiazol-2(3H)-ylidene)(1,7-closo-dicarba-dodecaborane)-carboxamide [2m]
Ki [1]: 2.47 nM | Ki [2]: 42300 nM

(Z)-N-(6-Methoxy-3-(2-methoxyethyl)-benzo[d]-thiazol-2(3H)-ylidene)(1,12-closo-dicarba-dodecaborane)-carboxamide [2p]
Ki [1]: 3.17 nM | Ki [2]: 8670 nM
